Where “and” joins values, the source holds several entries; their conditions need not be identical. Equal entries are not always repeated.
System: DU 145 cells
Test: Proliferation of DU 145 cells after 3-day treatment, measured using CTG reagent; single agents and combination, synergy analysed with CompuSyn
Assay type: cell-based
Settings: for inhibition of proliferation in DU145 cells: single agents, conclusion in words
Protocol: The effect of 3-day compound treatment on cell proliferation was measured using CTG reagent.

For CC(C)[C@H](C(=O)Nc1cc(C2CC2)[nH]n1)c1cccc(-c2ccc(NC(=O)/C=C/CN3CCOCC3)nc2)c1 (single isomer, unassigned) [Compound-44A], the “% inhibition in proliferation” value (Compound-44A 0.00209 nM, Day-3, replicate columns) was 0.7% and −2.6% and 2.1%, the “% inhibition in proliferation” value (Compound-44A 0.00627 nM, Day-3, replicate columns) was −1.3% and 3.7% and −0.3% and the “% inhibition in proliferation” value (Compound-44A 0.01882 nM, Day-3, replicate columns) was −4.7% and 2.1% and −5.1%. The “% inhibition in proliferation” value (Compound-44A 0.0565 nM, Day-3, replicate columns) was −1.2% and 8.1% and 1.7%, the “% inhibition in proliferation” value (Compound-44A 0.1694 nM, Day-3, replicate columns) was −3.1% and 4.7% and −5.4% and the “% inhibition in proliferation” value (Compound-44A 0.5081 nM, Day-3, replicate columns) was 8.2% and 0.7% and 3.1%. The “% inhibition in proliferation” value (Compound-44A 1.5242 nM, Day-3, replicate columns) was 1.6% and −1.5% and 5.6%, the “% inhibition in proliferation” value (Compound-44A 4.5725 nM, Day-3, replicate columns) was 5.9% and 3.4% and the “% inhibition in proliferation” value (Compound-44A 13.7174 nM, Day-3, replicate columns) was 13.0% and 12.9%. For the same compound, the “% inhibition in proliferation” value (Compound-44A 41.1523 nM, Day-3, replicate columns) was 30.9% and 25.2%, the “% inhibition in proliferation” value (Compound-44A 123.4568 nM, Day-3, replicate columns) was 56.2% and 55.9% and the “% inhibition in proliferation” value (Compound-44A 370.3704 nM, Day-3, replicate columns) was 77.9% and 80.7%. For the same compound, the “% inhibition in proliferation” value (Compound-44A 1111.1111 nM, Day-3, replicate columns) was 110.4% and 105.8%, the “% inhibition in proliferation” value (Compound-44A 3333.3333 nM, Day-3, replicate columns) was 111.8% and 110.8% and the “% inhibition in proliferation” value (Compound-44A 10000.00 nM, Day-3, replicate columns) was 106.1% and 106.3%. The inhibition at 0.0005 µM (Homo sapiens, DU-145, 72 h, Compound-44A 0.5 nM alone (docetaxel 0), checkerboard, 3 days) was 3.98%, the inhibition at 0.0045 µM (Homo sapiens, DU-145, 72 h, Compound-44A 4.5 nM alone (docetaxel 0), checkerboard, 3 days) was 4.81% and the inhibition at 0.0137 µM (Homo sapiens, DU-145, 72 h, Compound-44A 13.7 nM alone (docetaxel 0), checkerboard, 3 days) was 14.6%. The inhibition at 0.0411 µM (Homo sapiens, DU-145, 72 h, Compound-44A 41.1 nM alone (docetaxel 0), checkerboard, 3 days) was 29.1%, the inhibition at 0.1234 µM (Homo sapiens, DU-145, 72 h, Compound-44A 123.4 nM alone (docetaxel 0), checkerboard, 3 days) was 55.7% and the inhibition at 0.3703 µM (Homo sapiens, DU-145, 72 h, Compound-44A 370.3 nM alone (docetaxel 0), checkerboard, 3 days) was 77.6%. The inhibition at 0.0045725 µM (Homo sapiens, DU-145, Compound-44A 4.5725 nM, Day-3, replicate columns) was 5.1%, the inhibition at 0.0137174 µM (Homo sapiens, DU-145, Compound-44A 13.7174 nM, Day-3, replicate columns) was 18% and the inhibition at 0.0411523 µM (Homo sapiens, DU-145, Compound-44A 41.1523 nM, Day-3, replicate columns) was 31.2%. The inhibition at 0.123457 µM (Homo sapiens, DU-145, Compound-44A 123.4568 nM, Day-3, replicate columns) was 55%, the inhibition at 0.37037 µM (Homo sapiens, DU-145, Compound-44A 370.3704 nM, Day-3, replicate columns) was 74.1% and the inhibition at 1.11111 µM (Homo sapiens, DU-145, Compound-44A 1111.1111 nM, Day-3, replicate columns) was 109%. The inhibition at 3.33333 µM (Homo sapiens, DU-145, Compound-44A 3333.3333 nM, Day-3, replicate columns) was 112%, the inhibition at 10 µM (Homo sapiens, DU-145, Compound-44A 10000.00 nM, Day-3, replicate columns) was 107% and the “inhibition of proliferation in DU145 cells” value was “dose dependent inhibition of proliferation”.

For CC(=O)O[C@@]12CO[C@@H]1C[C@H](O)[C@@]1(C)C(=O)[C@H](O)C3=C(C)[C@@H](OC(=O)[C@H](O)[C@@H](NC(=O)OC(C)(C)C)c4ccccc4)C[C@@](O)([C@@H](OC(=O)c4ccccc4)[C@H]21)C3(C)C [Docetaxel, docetaxel], the “% inhibition in proliferation” value (Docetaxel 0.0002 nM, Day-3, replicate columns) was 1.6% and −0.5% and 3.2%, the “% inhibition in proliferation” value (Docetaxel 0.0007 nM, Day-3, replicate columns) was −3.9% and −5.1% and 2.9% and the “% inhibition in proliferation” value (Docetaxel 0.0021 nM, Day-3, replicate columns) was −2.5% and 1.2% and 3.4%. The “% inhibition in proliferation” value (Docetaxel 0.0188 nM, Day-3, replicate columns) was 0.8% and 0.9% and 10.0%, the “% inhibition in proliferation” value (Docetaxel 0.0565 nM, Day-3, replicate columns) was 8.8% and 16.0% and 24.0% and the “% inhibition in proliferation” value (Docetaxel 0.1694 nM, Day-3, replicate columns) was 8.3% and 2.2% and 4.1%. For the same compound, the “% inhibition in proliferation” value (Docetaxel 0.5081 nM, Day-3, replicate columns) was 15.5% and 18.3%, the “% inhibition in proliferation” value (Docetaxel 1.5242 nM, Day-3, replicate columns) was 57.5% and 59.4% and the “% inhibition in proliferation” value (Docetaxel 4.5725 nM, Day-3, replicate columns) was 98.6% and 99.2%. For the same compound, the “% inhibition in proliferation” value (Docetaxel 13.7174 nM, Day-3, replicate columns) was 117.2% and 114.3%, the “% inhibition in proliferation” value (Docetaxel 41.1523 nM, Day-3, replicate columns) was 123.1% and 120.5% and the “% inhibition in proliferation” value (Docetaxel 123.4568 nM, Day-3, replicate columns) was 126.0% and 122.3%. For the same compound, the “% inhibition in proliferation” value (Docetaxel 370.3704 nM, Day-3, replicate columns) was 125.0% and 123.2%, the “% inhibition in proliferation” value (Docetaxel 1111.1111 nM, Day-3, replicate columns) was 125.2% and 121.8% and the “% inhibition in proliferation” value (Docetaxel 3333.3333 nM, Day-3, replicate columns) was 124.1% and 121.7%. For the same compound, the “% inhibition in proliferation” value (Docetaxel 10000.00 nM, Day-3, replicate columns) was 118.3% and 117.0%, the inhibition at 200 fM (Homo sapiens, DU-145, 72 h, Docetaxel 0.0002 nM alone (Compound-44A 0), checkerboard, 3 days) was 1.42% and the inhibition at 700 fM (Homo sapiens, DU-145, 72 h, Docetaxel 0.0007 nM alone (Compound-44A 0), checkerboard, 3 days) was 0%. It also gave an inhibition at 2.1 pM (Homo sapiens, DU-145, 72 h, Docetaxel 0.0021 nM alone (Compound-44A 0), checkerboard, 3 days) of 0.69%, an inhibition at 18.8 pM (Homo sapiens, DU-145, 72 h, Docetaxel 0.0188 nM alone (Compound-44A 0), checkerboard, 3 days) of 3.89% and an inhibition at 56.5 pM (Homo sapiens, DU-145, 72 h, Docetaxel 0.0565 nM alone (Compound-44A 0), checkerboard, 3 days) of 16.3%. The inhibition at 0.0001694 µM (Homo sapiens, DU-145, 72 h, Docetaxel 0.1694 nM (Table 5: 0.17) alone (Compound-44A 0), checkerboard, 3 days) was 4.86%, the inhibition at 0.0005081 µM (Homo sapiens, DU-145, 72 h, Docetaxel 0.5081 nM (Table 5: 0.51) alone (Compound-44A 0), checkerboard, 3 days) was 15.9% and the inhibition at 0.00152 µM (Homo sapiens, DU-145, 72 h, Docetaxel 1.52 nM alone (Compound-44A 0), checkerboard, 3 days) was 55.6%. For the same compound, the inhibition at 0.00457 µM (Homo sapiens, DU-145, 72 h, Docetaxel 4.57 nM alone (Compound-44A 0), checkerboard, 3 days) was 97.5%, the inhibition at 0.01372 µM (Homo sapiens, DU-145, 72 h, Docetaxel 13.72 nM alone (Compound-44A 0), checkerboard, 3 days) was 116% and the inhibition at 0.04115 µM (Homo sapiens, DU-145, 72 h, Docetaxel 41.15 nM alone (Compound-44A 0), checkerboard, 3 days) was 122%. For the same compound, the inhibition at 0.12346 µM (Homo sapiens, DU-145, 72 h, Docetaxel 123.46 nM alone (Compound-44A 0), checkerboard, 3 days) was 125%, the inhibition at 0.37037 µM (Homo sapiens, DU-145, 72 h, Docetaxel 370.37 nM alone (Compound-44A 0), checkerboard, 3 days) was 125% and the inhibition at 1.11111 µM (Homo sapiens, DU-145, 72 h, Docetaxel 1111.11 nM alone (Compound-44A 0), checkerboard, 3 days) was 124%. For the same compound, the inhibition at 3.33333 µM (Homo sapiens, DU-145, 72 h, Docetaxel 3333.33 nM alone (Compound-44A 0), checkerboard, 3 days) was 123%, the inhibition at 10 µM (Homo sapiens, DU-145, 72 h, Docetaxel 10000.00 nM alone (Compound-44A 0), checkerboard, 3 days) was 118% and the inhibition at 6.3 pM (Homo sapiens, DU-145, 72 h, Docetaxel […] alone (Compound-44A 0), checkerboard, 3 days) was 0%. For the same compound, the inhibition at 0.0005081 µM (Homo sapiens, DU-145, Docetaxel 0.5081 nM, Day-3, replicate columns) was 14%, the inhibition at 0.0015242 µM (Homo sapiens, DU-145, Docetaxel 1.5242 nM, Day-3, replicate columns) was 49.8% and the inhibition at 0.0045725 µM (Homo sapiens, DU-145, Docetaxel 4.5725 nM, Day-3, replicate columns) was 94.6%. It also gave an inhibition at 0.0137174 µM (Homo sapiens, DU-145, Docetaxel 13.7174 nM, Day-3, replicate columns) of 115%, an inhibition at 0.0411523 µM (Homo sapiens, DU-145, Docetaxel 41.1523 nM, Day-3, replicate columns) of 123% and an inhibition at 0.123457 µM (Homo sapiens, DU-145, Docetaxel 123.4568 nM, Day-3, replicate columns) of 126%. The inhibition at 0.37037 µM (Homo sapiens, DU-145, Docetaxel 370.3704 nM, Day-3, replicate columns) was 126%, the inhibition at 1.11111 µM (Homo sapiens, DU-145, Docetaxel 1111.1111 nM, Day-3, replicate columns) was 125% and the inhibition at 3.33333 µM (Homo sapiens, DU-145, Docetaxel 3333.3333 nM, Day-3, replicate columns) was 124%. For the same compound, the inhibition at 10 µM (Homo sapiens, DU-145, Docetaxel 10000.00 nM, Day-3, replicate columns) was 119% and the “inhibition of proliferation in DU145 cells” value was “dose dependent inhibition of proliferation”.

From patent publication US20240016811A1, “CANCER THERAPY USING A COMBINATION OF CDK7 INHIBITOR WITH AN ANTI-MICROTUBULE AGENT” (Aurigene Oncology Limited, priority 2020, published 2024)
